{"source": "patent US20250064056A1", "about": "“CONTACT PHEROMONE-CONTAINING COMPOSITION FOR CONTROLLING THRIPS, KIT COMPOSITION FOR CONTROLLING THRIPS, AND METHOD OF CONTROLLING THRIPS BY USING SAME” (Andong National University Industry-Academic Cooperation …, priority 2023, published 2025)", "assay_type_in_all_cases": "in vivo", "key": {"[1]": {"tested_on": "Frankliniella occidentalis", "assay": "Outdoor pest control test on open-field peppers, F. occidentalis", "settings": "for Contol efficacy (%) (control value) / Survival (%) Mean / Survival (%) I / Survival (%) II / Survival (%) III: 3 days after treatment, dose a.i. μg/mL: 7MT 100, Spinetoram 12.5; for Survival (%) Mean: mean of 3 replicates; for Survival (%) I: replicate I; for Survival (%) II: replicate II; for Survival (%) III: replicate III", "experimental": "(§1) Each treatment was repeated three times using the egg mass method in open pepper production areas located in Songcheon-dong, Andong-si, Gyeongsangbuk-do. Each test group was pepper individuals, and the distance between these individuals was maintained at least 6 m. The amount of chemical agent sprayed on each pepper individual was 30 mL, and the chemical agent was sufficiently sprayed on the entire peppers. […] […] The control group was treated with a distilled chemical agent. The density of thrips was calculated before treatment and on days 1 and 3 after treatment. The classification of these three different thrips was carried out by using the shape identification method presented by Kim et al. (2021).\n(§2) For the indoor behavioral experiment, one-way ANOVA analysis was performed using PROC GLM (SAS Institute, 1989). The effectiveness of outdoor pest control was confirmed by calculating the survival rate and performing […] and two-way ANOVA analysis. Comparison between treatment means was determined based on a Type I error probability of 0.05 using an LSD method.\n(§3) A test was conducted to check the outdoor control efficiency by adding a contact pheromone causing behavior disruption to Spinetoram having a relatively high control efficiency against thrips. At the end of May 2023, when the test was conducted, Frankliniella occidentalis and Frankliniella intonsa appeared around peppers in open areas in the Andong region. By taking advantage of this situation, treatment with a chemical agent alone and treatment with a chemical agent/contact pheromone mixture were implemented. In the untreated control group, an increase in the density of two thrips was observed. However, in the mixed treatment with Spinetoram, an overall decrease in the density was clearly observed.\n(§4) To analyze the results in detail, a control value on the 3rd day of treatment was calculated. […] The average survival rate was lowered in all treatment cases compared to no treatment cases. […] At this time, when the contact pheromone was added, the control value increased for both thrips."}, "[2]": {"tested_on": "Frankliniella intonsa", "assay": "Outdoor pest control test on open-field peppers, F. intonsa", "settings": "for Contol efficacy (%) (control value) / Survival (%) Mean / Survival (%) I / Survival (%) II / Survival (%) III: 3 days after treatment, dose a.i. μg/mL: 7MT 100, Spinetoram 12.5; for Survival (%) Mean: mean of 3 replicates; for Survival (%) I: replicate I; for Survival (%) II: replicate II; for Survival (%) III: replicate III", "experimental": "as §1, §2, §3, §4"}, "[3]": {"tested_on": "Total thrips", "assay": "Outdoor pest control test on open-field peppers, total thrips", "settings": "3 days after treatment, dose a.i. μg/mL: 7MT 100, Spinetoram 12.5; for Survival (%) Mean: mean of 3 replicates; for Survival (%) I: replicate I; for Survival (%) II: replicate II; for Survival (%) III: replicate III", "experimental": "as §1, §2, §3, §4"}, "[4]": {"tested_on": "Frankliniella occidentalis", "assay": "Behavioral test (petri dish, treated vs control kidney bean feed), F. occidentalis", "settings": "10 μL on filter paper, 10 minutes, FIG. 1B", "experimental": "(§5) FIGS. 1A, 1B, and 1C show the results of behavioral tests in a container for behavior analysis (A) for two types of thrips (F. occidentalis (B) and F. intonsa (C)), in the container for behavior analysis (A), a […] placed on a filter paper disk was treated with 7-methyltricosane (7TM), the control diet was treated with acid solvent, after 10 minutes, the number of thrips that reached each feed was counted, each treatment was repeated four times by exchanging the positions of the treatment and control groups, asterisk indicates a significant difference with type I error=0.05 (LSD test), and “NS” means no significant difference; and\n(§6) A filter paper was unfolded in the behavior test site, and two kidney beans were placed away at a distance of 50 mm as bait. Each of the test substances was applied on top of each feed. In the test substance treatment, 10 μL of 7TM substance was sprayed onto 5 mm circular filter paper. In the case of the control group, the same volume of hexane was sprayed onto a filter paper as a test substance. Each circular filter paper differently treated was placed on any one of the two kidney beans. Next, test individuals were placed in the center 40 mm away from both feed sources. Afterward, the individuals having reached each feed were counted for 10 minutes at room temperature. 10 individuals were used in each test, and each test was repeated 4 times. The positions of the control group and the treatment group were exchanged in each repetition. […]\n(§7) For the indoor behavioral experiment, one-way ANOVA analysis was performed using PROC GLM (SAS Institute, 1989). […] Comparison between treatment means was determined based on a Type I error probability of 0.05 using an LSD method.\n(§8) To analyze the behavioral responses of thrips with affinity for a contact pheromone, a behavior analysis container (shown in FIG. 1(A)) was manufactured using a petri dish. Thrips were prepared to be near the treated feed, and after inducing the behavioral responses for 10 minutes, some of the thrips staying near the pheromone-treated feed were counted."}, "[5]": {"tested_on": "Frankliniella intonsa", "assay": "Behavioral test (petri dish, treated vs control kidney bean feed), F. intonsa", "settings": "10 μL on filter paper, 10 minutes, FIG. 1C", "experimental": "as §5, §6, §7, §8"}, "[6]": {"settings": "contact pheromone alone, 3rd day of treatment"}}, "data": [{"molecule": "CCCCCCCCCCCCCCCCC(C)CCCCCC", "note": "(centres unmarked) [7MT, 7-Methyltricosane]", "values": [{"measurement": "Contol efficacy (%) (control value)", "setting": "[1]", "result": 31.2, "unit": "%"}, {"measurement": "density of thrips vs no treatment (in words)", "setting": "[1]; [6]", "result": "it was not"}, {"measurement": "Survival (%) Mean", "setting": "[1]", "result": 358.3, "unit": "%"}, {"measurement": "Survival (%) I", "setting": "[1]", "result": 500.0, "unit": "%"}, {"measurement": "Survival (%) II", "setting": "[1]", "result": 300.0, "unit": "%"}, {"measurement": "Survival (%) III", "setting": "[1]", "result": 275.0, "unit": "%"}, {"measurement": "Contol efficacy (%) (control value)", "setting": "[2]", "result": 32.2, "unit": "%"}, {"measurement": "density of thrips vs no treatment (in words)", "setting": "[2]; [6]", "result": "statistically significantly reduced"}, {"measurement": "Survival (%) Mean", "setting": "[2]", "result": 115.7, "unit": "%"}, {"measurement": "Survival (%) I", "setting": "[2]", "result": 133.3, "unit": "%"}, {"measurement": "Survival (%) II", "setting": "[2]", "result": 150.0, "unit": "%"}, {"measurement": "Survival (%) III", "setting": "[2]", "result": 63.6, "unit": "%"}, {"measurement": "Contol efficacy (%) (control value)", "setting": "[3]", "result": 12.4, "unit": "%"}, {"measurement": "Survival (%) Mean", "setting": "[3]", "result": 222.2, "unit": "%"}, {"measurement": "Survival (%) I", "setting": "[3]", "result": 300.0, "unit": "%"}, {"measurement": "Survival (%) II", "setting": "[3]", "result": 233.3, "unit": "%"}, {"measurement": "Survival (%) III", "setting": "[3]", "result": 133.3, "unit": "%"}, {"measurement": "behavioral response to pheromone-treated feed", "setting": "[4]; F. occidentalis adult females", "result": "high preference"}, {"measurement": "behavioral response to pheromone-treated feed", "setting": "[4]; F. occidentalis adult males", "result": "avoiding feed sprayed with the contact pheromone"}, {"measurement": "behavioral response to pheromone-treated feed", "setting": "[4]; F. occidentalis second-instar larvae", "result": "did not show specific selection behavior"}, {"measurement": "behavioral response to pheromone-treated feed", "setting": "[5]; F. intonsa adult females", "result": "high preference"}, {"measurement": "behavioral response to pheromone-treated feed", "setting": "[5]; F. intonsa adult males", "result": "avoiding feed sprayed with the contact pheromone"}, {"measurement": "behavioral response to pheromone-treated feed", "setting": "[5]; F. intonsa second-instar larvae", "result": "did not show specific selection behavior"}]}, {"molecule": "Spinetoram [reference compound]", "values": [{"measurement": "Contol efficacy (%) (control value)", "setting": "[1]", "result": 71.9, "unit": "%"}, {"measurement": "Survival (%) Mean", "setting": "[1]", "result": 146.4, "unit": "%"}, {"measurement": "Survival (%) I", "setting": "[1]", "result": 150.0, "unit": "%"}, {"measurement": "Survival (%) II", "setting": "[1]", "result": 175.0, "unit": "%"}, {"measurement": "Survival (%) III", "setting": "[1]", "result": 114.3, "unit": "%"}, {"measurement": "Contol efficacy (%) (control value)", "setting": "[2]", "result": 80.3, "unit": "%"}, {"measurement": "Survival (%) Mean", "setting": "[2]", "result": 33.6, "unit": "%"}, {"measurement": "Survival (%) I", "setting": "[2]", "result": 40.0, "unit": "%"}, {"measurement": "Survival (%) II", "setting": "[2]", "result": 22.2, "unit": "%"}, {"measurement": "Survival (%) III", "setting": "[2]", "result": 38.5, "unit": "%"}, {"measurement": "Contol efficacy (%) (control value)", "setting": "[3]", "result": 76.2, "unit": "%"}, {"measurement": "Survival (%) Mean", "setting": "[3]", "result": 60.5, "unit": "%"}, {"measurement": "Survival (%) I", "setting": "[3]", "result": 73.3, "unit": "%"}, {"measurement": "Survival (%) II", "setting": "[3]", "result": 46.2, "unit": "%"}, {"measurement": "Survival (%) III", "setting": "[3]", "result": 61.1, "unit": "%"}]}]}
